The subject of assay [1] is rat cardiac allografts. Briefly: Rat cardiac allograft study, Allograft Study 2 (Table 20).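 On all read-outs here: lewis x Brown Norway F1 hearts grafted abdominally into male Lewis rats, palpated daily, rejection meaning complete loss of heartbeat, day 0 being surgery day.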 Particulars: for percent of surviving grafts within a group / number of surviving grafts within each group: s.c., GG5/3 3 mg/kg, compounds 30 mg/kg.
Method: Hearts from Lewis X Brown Norway F1 hybrids were transplanted to the abdominal great vessels of Lewis recipients using standard microvascular techniques. Both rat strains were male inbred rats, weighing 200-300 g. Food and water was available at all times except during surgical and dosing procedures. The day of transplantation was noted as day 0. […] Allograft survival in the rats was evaluated by daily palpation of the transplanted heart through the recipient's flank. Rejection was taken as the day of complete cessation of the graft's heart beat. Upon determination of rejection, the abdomen of the recipient was incised and retracted to confirm cessation of the heart beat in the transplanted heart. If cessation of the heart beat was not confirmed the abdomen was surgically closed, and the grafted heart was evaluated daily.
Cardiac allografts were established. Dosing of compounds began on day 0, prior to transplantation and continued through day +10. […] The vehicle control, 10% ethanol/corn oil, was administered s.c., every 12 hours, day 0 through day +10. The antibody, GG5/3 in 0.9% saline, was administered at 3 mg/kg, s.c., on day 0, +3, +7 and +10. All GG5/3 animals received twice daily s.c. injections of 0.9% saline, every 12 hours, throughout day 0 through day +10. The vehicle control, 0.9% saline, was administered daily, s.c., day 0 through day +10. All dosing solutions were formulated daily at a constant dose volume of 5 ml/kg. The site of injection was rotated at each injection through four possible sites: right and left fore flank, right and left rear flank. A total of 28 allografts, amongst 5 groups, were evaluated in the study. Group 1, consisted of 6 animals treated with the monoclonal antibody, GG5/3. […] Allograft survival was evaluated by daily palpation of the transplanted heart through the recipient's flank. Rejection was taken as the day of complete cessation of graft's heart beat. Upon determination of rejection, the abdomen of the recipient was incised to confirm cessation of the heart beat in the transplanted heart. If cessation of the graft's heart beat was not confirmed the abdomen was surgically closed, and the graft was evaluated daily.
The test system of assay [2] is Lewis X Brown Norway F1 hearts transplanted to Lewis recipients. Briefly: Rat cardiac allograft model, Allograft Study 1 (summary across three studies). Type of assay: in vivo. From the text: Allograft rejection is defined as the expression of an immune reaction of the recipient, against foreign antigens of the transplanted tissue. This reaction is mediated by T lymphocytes. Cell adhesion events are of critical importance in the T-cell recognition of alloantigens, the trafficking of recipient immune and inflammatory cells into the graft, and the execution of cell-mediated effector functions. […] This beneficial therapeutic effect correlates with decreased infiltration by α4β1 positive cells, deposition of CS1-FN, and endothelial staining for VCAM-1, as determined by immunohistology/RNAse protection assay.
To further evaluate the therapeutic potential of α4β1 targeted therapy in transplantation rejection, three studies were conducted in a well-defined rat cardiac transplant model. The following report summarizes the data across all three studies.

In assay [3] the test system is rat cardiac allografts. Briefly: Rat cardiac allograft study, Allograft Study 4 (Table 22).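 Further: heterotopic abdominal heart transplants from Lewis × Brown Norway F1 donors into male Lewis rats, graft beating checked daily by flank palpation, rejection defined as complete stop of heartbeat, transplant day 0.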 As to conditions: 30 mg/kg s.c. every 12 h, day -2 to +10.
Method: Hearts from Lewis X Brown Norway F1 hybrids were transplanted to the abdominal great vessels of Lewis recipients using standard microvascular techniques. Both rat strains were male inbred rats, weighing 200-300 g. Food and water was available at all times except during surgical and dosing procedures. The day of transplantation was noted as day 0. Twelve hours following the last dose approximately 1 ml of blood was collected into lithium/heparin anti-coagulant tubes. If any graft was rejected prior to the last day of dosing, blood samples were taken 12 hours after dosing on the day that graft rejection was noted. All blood samples were centrifuged at 3000 rpm for 10 minutes and the plasma was harvested, frozen on dry ice and stored frozen at −20 C prior to analysis. Allograft survival in the rats was evaluated by daily palpation of the transplanted heart through the recipient's flank. Rejection was taken as the day of complete cessation of the graft's heart beat. Upon determination of rejection, the abdomen of the recipient was incised and retracted to confirm cessation of the heart beat in the transplanted heart. If cessation of the heart beat was not confirmed the abdomen was surgically closed, and the grafted heart was evaluated daily.
Cardiac allografts were established. Dosing of compounds began on day −2, 2 days prior to transplantation and continued through day +10. […] The vehicle control, 0.9% saline, pH adjusted to a value of 5, to match the dosing solution containing the N-[N-(3-pyridinesulfonyl)-L-3,3-dimethyl-4-thiaprolyl]-0-[1-methylpiperazin-4-ylcarbonyl]-L-tyrosine isopropyl ester, was administered via the same route, i.e. every 12 hours, day −2 through day +10. The antibody, GG5/3 in 0.9% saline, was administered at 3 mg/kg, s.c., on day 0, +3, +7 and +10. All GG5/3 animals received twice daily s.c. injections of 0.9% saline, every 12 hours, from day −2 through day +10. The vehicle control, 0.9% saline, was administered daily, s.c., day 0 through day +10. All dosing solutions were formulated daily at a constant dose volume of 5 ml/kg. The site of injection was rotated at each injection through four possible sites: right and left fore flank, right and left rear flank. A total of 21 allografts, amongst 5 groups, were evaluated in the study. […] Two animals within the 0.9% saline group received saline adjusted to a pH a value of 5. (The pH value of the N-[N-(3-pyridinesulfonyl)-L-3,3-dimethyl-4-thiaprolyl]-0-[1-methylpiperazin-4-ylcarbonyl]-L-tyrosine isopropyl ester dosing solution.) The remaining two animals received saline of pH 7. Group 2 consisted of 6 animals treated with the monoclonal antibody, GG5/3. […] Twelve hours following the last dose approximately 1 ml of blood was collected into lithium/heparin anti-coagulant tubes. If any graft was rejected prior to the last day of dosing, blood samples were taken 12 hours after dosing on the day that graft rejection was noted. All samples were centrifuged at 3000 rpm for 10 minutes and the plasma was harvested, frozen on dry ice and stored frozen at −20 C prior to dispatch for analysis. Allograft survival in the rats was evaluated by daily palpation of the transplanted heart through the recipient's flank. Rejection was taken as the day of complete cessation of graft's heart beat. Upon determination of rejection, the abdomen of the recipient was incised to confirm cessation of the heart beat in the transplanted heart. If cessation of the heart beat was not confirmed the abdomen was surgically closed, and the graft was evaluated daily.
Assay [4] relates to rat cardiac allografts. Description: Rat cardiac allograft study, Allograft Study 5, dose response (Table 23). The class given is in vivo.

Bounds are passed on as bounds.

Take `CC(C)OC(=O)[C@H](Cc1ccc(OC(=O)N(C)C)cc1)NC(=O)[C@H]1N(S(=O)(=O)c2cccnc2)CSC1(C)C` [listing 1 of 2 here]: the “percent of surviving grafts within a group” value (“percent” for short) with rat cardiac allografts [1] (Day 0), in the assay with rat cardiac allografts [1] (Day 1), in the assay on rat cardiac allografts [1] (Day 2), with rat cardiac allografts [1] (Day 3), in the assay on rat cardiac allografts [1] (Day 4) and in the assay with rat cardiac allografts [1] (Day 5) was 100% each time. Besides, the “percent” value in the assay with rat cardiac allografts [1] (Day 6) worked out at 100%; with rat cardiac allografts [1] (Day 7), 100%; in the assay with rat cardiac allografts [1] (Day 8), 66%; with rat cardiac allografts [1] (Day 9) it was 50%; with rat cardiac allografts [1] (Day 10), 50%; in the assay on rat cardiac allografts [1] (Day 11), 16%. For the same compound, the “percent” value in the assay on rat cardiac allografts [1] (Day 12), in the assay on rat cardiac allografts [1] (Day 13), in the assay on rat cardiac allografts [1] (Day 14), with rat cardiac allografts [1] (Day 15) and in the assay on rat cardiac allografts [1] (Day 16) was 0% each time.
For `CC(C)OC(=O)[C@H](Cc1ccc(OC(=O)N(C)C)cc1)NC(=O)[C@H]1N(S(=O)(=O)c2cnn(C)c2)CSC1(C)C`, the “percent” value with rat cardiac allografts [1] (Day 0), in the assay on rat cardiac allografts [1] (Day 1), in the assay on rat cardiac allografts [1] (Day 2), in the assay with rat cardiac allografts [1] (Day 3), in the assay with rat cardiac allografts [1] (Day 4) and with rat cardiac allografts [1] (Day 5) was 100% in each case. Also, the “percent” value is 100% in the assay with rat cardiac allografts [1] (Day 6); 100% with rat cardiac allografts [1] (Day 7); 100% in the assay on rat cardiac allografts [1] (Day 8); 100% with rat cardiac allografts [1] (Day 9); 83% in the assay on rat cardiac allografts [1] (Day 10); 50% in the assay with rat cardiac allografts [1] (Day 11). Moreover, the “percent” value was found to be 50% in the assay with rat cardiac allografts [1] (Day 12); 33% in the assay with rat cardiac allografts [1] (Day 13); 16% with rat cardiac allografts [1] (Day 14); 16% with rat cardiac allografts [1] (Day 15); 0% in the assay with rat cardiac allografts [1] (Day 16).
`CC(C)OC(=O)[C@H](Cc1ccc(OC(=O)N(C)C)cc1)NC(=O)[C@H]1N(S(=O)(=O)c2cccnc2)CSC1(C)C` [Example 173]: in the assay on rat cardiac allografts [1] (30 mg/kg s.c. every 12 h, day 0 through day +10), the “day by which all grafts rejected” value is no more than 12 days. Further, the “graft survival (in words)” value in the assay with rat cardiac allografts [1] (compounds 30 mg/kg s.c. every 12 h, GG5/3 3 mg/kg s.c. day 0, +3, +7, +10) is listed as “prolonged graft survival for a short period”.
Take `CC(C)OC(=O)[C@H](Cc1ccc(OC(=O)N2CCN(C)CC2)cc1)NC(=O)[C@H]1N(S(=O)(=O)c2cccnc2)CSC1(C)C` [Example 379]: in assay [2], the “graft survival rate on day +14” value worked out at 66% and the “graft survival rate out to day +30” value is listed as 33%. Further, the “absolute cardiac allograft survival (last day of graft survival)” value in assay [2] (vehicle day +9) turned out to be 41 day. In the assay on rat cardiac allografts [3], the “allograft acceptance compared with GG5/3” value is “significantly prolong allograft acceptance beyond the level obtain with GG5/3”, the “graft survival rate on day +19” value is reported as “Fifty percent or greater” and the “longest surviving graft (one graft)” value amounted to 41 days. In the assay with rat cardiac allografts [4] (3 mg/kg s.c. every 12 h), the day rejection begins turned out to be 7 days, the “day rejection is completed” value was no more than 10 days and the “protection against graft rejection” value is listed as “did not provide any protection against graft rejection”. The day rejection begins in the assay with rat cardiac allografts [4] (10 mg/kg s.c. every 12 h) is 8 days. In addition, in the assay on rat cardiac allografts [4] (10 mg/kg s.c. every 12 h, by day +22), the graft survival rate is on record as 20%. The “graft acceptance (in words)” value in the assay on rat cardiac allografts [4] (30 mg/kg s.c. every 12 h) is listed as “prolonged graft acceptance”. This compound also displayed a graft survival rate in the assay on rat cardiac allografts [4] (30 mg/kg s.c. every 12 h, day +22, study still in progress) of 83%.
In the case of `CC(C)OC(=O)[C@H](Cc1ccc(OC(=O)N(C)C)cc1)NC(=O)[C@H]1N(S(=O)(=O)c2cccnc2)CSC1(C)C` [listing 2 of 2 here], the “number of surviving grafts within each group” value (from here on “number”) in the assay with rat cardiac allografts [1] (Day 0), in the assay on rat cardiac allografts [1] (Day 1), in the assay with rat cardiac allografts [1] (Day 2), in the assay on rat cardiac allografts [1] (Day 3), with rat cardiac allografts [1] (Day 4) and with rat cardiac allografts [1] (Day 5) was 6 throughout. In addition, the “number” value was determined as 6 in the assay on rat cardiac allografts [1] (Day 6); 6 in the assay with rat cardiac allografts [1] (Day 7); 4 in the assay on rat cardiac allografts [1] (Day 8); 2 in the assay on rat cardiac allografts [1] (Day 9); 2 in the assay with rat cardiac allografts [1] (Day 10); 1 in the assay with rat cardiac allografts [1] (Day 11). For the same compound, the “number” value in the assay with rat cardiac allografts [1] (Day 12), in the assay on rat cardiac allografts [1] (Day 13), in the assay on rat cardiac allografts [1] (Day 14), in the assay with rat cardiac allografts [1] (Day 15) and in the assay on rat cardiac allografts [1] (Day 16) was 0 each time.

The values above are taken from patent publication US20060004019A1, “Steroid sparing agents and methods of using same” (priority 2004, published 2006).
